Assay results: paper PMC11842588, “A first-in-class selective inhibitor of ERK1/2 and ERK5 overcomes drug resistance with a single-molecule strategy” (Signal Transduction and Targeted Therapy, 2025)
Values joined by “and” are separate entries in the source; they are usually repeats but may differ in a detail not shown here. Equal entries are not always repeated.

Columns and labels:
[1] = Caco-2 bidirectional transport; format: in vitro ADME; details: human
Method: (§1) Caco-2 cells were inoculated in a Transwell chamber with a pore size of 0.4 μm, and cultured for 15–20 days, the formation of the monolayer cell model was verified by the permeability determination of fluorescein sodium. Then a certain concentration of culture-medium containing candidate compounds was added to the upper and lower sides of different groups of cells, and the culture-medium at the corresponding position was absorbed after the specified time. After the internal standard compound was added, the content of candidate compounds was determined by LC-MS/MS to investigate the apparent permeability and effection rate, and to analyze the bidirectional transport characteristics of candidate compounds in the Caco-2 cell monolayer model.

[2] = system: Caco-2 cell monolayer model; test: Caco-2 bidirectional transport; format: in vitro ADME; details: Caco-2, 120 min
Method: as §1

[3] = target: ERK1 (Homo sapiens, UniProt P27361); test: Isothermal titration calorimetry (ITC) assay; format: binding; details: 25 °C
ERK1, sequence (P27361 whole entry, the tested form may be a part): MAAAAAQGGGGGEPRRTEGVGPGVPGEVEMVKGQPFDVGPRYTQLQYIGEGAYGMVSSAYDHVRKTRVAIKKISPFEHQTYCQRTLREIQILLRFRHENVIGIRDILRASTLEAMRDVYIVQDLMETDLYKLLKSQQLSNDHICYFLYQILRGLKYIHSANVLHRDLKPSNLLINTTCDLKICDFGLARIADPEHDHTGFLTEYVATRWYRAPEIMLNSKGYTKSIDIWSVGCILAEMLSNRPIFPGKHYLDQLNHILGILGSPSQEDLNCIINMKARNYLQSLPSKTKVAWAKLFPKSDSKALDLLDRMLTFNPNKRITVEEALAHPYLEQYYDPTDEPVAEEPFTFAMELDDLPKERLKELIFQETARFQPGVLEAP
Method: (§2) The full-length human ERK1 or ERK2 with His-tag was cloned into a pET28a vector. hERK1/2 were expressed in Escherichia coli BL21(DE3), and then were purified using sequential Ni-NTA and Superdex 200 column steps. The SEC purified sample was then concentrated to 10 mg/ml and stored at −80 °C with buffer containing 20 mM HEPES pH 7.5, 150 mM NaCl. ERK5 (residues 48–395) containing His and GST tags was cloned into the pFastBac vector, and the recombinant plasmid was extracted. The recombinant plasmid was transformed into the DH10bac strain, and monoclonal was selected for culture. The recombinant Bacmid was then extracted according to the instructions of the Baculovirus Shuttle Vector Bacmid Mini Preparation Kit (Beyotime) and validated by PCR. 1 × 10^6/well Sf9 cells were counted for transfection and then amplified to obtain P3 ERK5 recombinant baculovirus. It was added to 2 × 10^6/mL Sf9 cells and incubated at 27 °C for 72 h on a shaker to express ERK5. Cells were lysed and supernatant was collected on a Ni-NTA for purification, and a 250 mM imidazole eluate was collected. […]
(§3) Calorimetric experiments were carried on an Affinity ITC (Waters, Shanghai) with 1 mM SKLB-D18 and 0.1 mM ERK1/2/5. […] The data were analyzed with the NanoAnalyze software employing a single binding site model. […]

[4] = target: ERK2 (Homo sapiens, UniProt P28482); test: Isothermal titration calorimetry (ITC) assay; format: binding; details: 25 °C
ERK2, sequence (P28482 whole entry): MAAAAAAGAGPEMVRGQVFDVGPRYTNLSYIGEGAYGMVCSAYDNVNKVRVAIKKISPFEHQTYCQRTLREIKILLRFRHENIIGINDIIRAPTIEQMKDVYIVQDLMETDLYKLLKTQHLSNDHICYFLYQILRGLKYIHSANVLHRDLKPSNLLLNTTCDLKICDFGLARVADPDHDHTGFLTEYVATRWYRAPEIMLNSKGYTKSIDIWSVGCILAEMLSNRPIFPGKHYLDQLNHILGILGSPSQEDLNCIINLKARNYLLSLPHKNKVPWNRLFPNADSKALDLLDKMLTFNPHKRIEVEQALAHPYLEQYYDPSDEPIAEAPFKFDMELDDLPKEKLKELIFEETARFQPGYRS
Method: as §2, §3

[5] = system: ERK1/2 and ERK5; test: Cellular thermal shift assay (CETSA); format: cell-based; details: 2 μM, MDA-MB-231 and MDA-MB-468 cells, 37–62 °C
Method: Cells were collected by trypsin and then resuspended in PBS. Following heating at the indicated temperatures (37, 42, 47, 52, 57, and 62 °C) for 3 min, cell suspensions were lysed by three freeze−thaw cycles with liquid nitrogen and thawed at room temperature. The lysates were separated by centrifugation at 17,000 × g for 20 min. The supernatants were collected and prepared for Immunoblotting to detect the stability of ERK1/2 and ERK5.

## CN(C)Cc1cccc(Nc2ncc(Cl)c(-c3csc(C(=O)NN4CCOCC4)c3)n2)c1 [SKLB-D18, 4-(5-chloro-2-((3-((dimethylamino)methyl)phenyl)amino)pyrimidin-4-yl)-N-morpholinothiophene-2-carboxamide]
[1]; Caco-2, 30 min, read-out: AP→BL Papp
  Papp A→B at 30 min: 0.106 ± 0.01 ×10⁻⁶ cm/s
[1]; Caco-2, 30 min, read-out: BL→AP Papp
  Papp B→A at 30 min: 0.011 ± 0.01 ×10⁻⁶ cm/s
[1]; Caco-2, 60 min, read-out: AP→BL Papp
  Papp A→B at 60 min: 0.318 ± 0.06 ×10⁻⁶ cm/s
[1]; Caco-2, 60 min, read-out: BL→AP Papp
  Papp B→A at 60 min: 0.117 ± 0.02 ×10⁻⁶ cm/s
[1]; Caco-2, 120 min, read-out: AP→BL Papp
  Papp A→B at 120 min: 2.23 ×10⁻⁶ cm/s
[1]; Caco-2, 120 min, read-out: BL→AP Papp
  Papp B→A at 120 min: 0.305 ×10⁻⁶ cm/s
[2]
  Efflux rate (%): 13.7% and 13.7 ± 0.5%
[3]
  Kd: 0.127 µM
[4]
  Kd: 0.21 µM
[5]
  thermal shift of ERK5 and ERK1/2 proteins (CETSA): increasing thermal shift
